Experimental findings from patent publication US20240246945A1, “NOVEL COMPOUND FOR CROP PROTECTANT” (LG CHEM, LTD., priority 2010, published 2024) are described below.

Molecules are shown by their SMILES.

The test system of one assay is Myzus persicae (Sulzer). Description: Insecticidal Activity Test 2 against Myzus persicae (Sulzer), foliar spray on potted peppers, approximately 25 ppm. The assay is classed as in vivo. Particulars: in Capsicum, 120 h, approximately 25 ppm drug solution in water, counted on day 5 after spraying, read-out: mortality rate rating. The text has this: Insecticidal Activity Test 2 Against Myzus persicae (Sulzer)
Peppers were planted in plastic pots with a diameter of 8 cm and a height of 8 cm, Myzus persicae (Sulzer) was reproduced therein, and then the number of Myzus persicae (Sulzer) in each pot was investigated. Some of the compounds prepared in the examples were selected, the compound was dispersed in water to be diluted to approximately 25 ppm, thereby preparing a drug solution.
The drug solution was sprayed onto the foliage of the peppers planted in the pots and air-dried, and the pots were stored in a green house.
(§1) On day 5 after the drug spraying, the number of Myzus persicae (Sulzer) parasitic on each pepper was counted, a mortality rate was calculated from the following formula, and the rating of each compound was investigated.
(§2) [formula] • A rating: 90% to 100% mortality • B rating: 80% or more and less than 90% mortality • C rating: less than 80% mortality
Turning to `CCN(C(=O)c1cnc(C2=NC3(CCOCC3)ON2C)n1C)c1cccnc1` [Ia-1-5-2, N-ethyl-1-methyl-2-(2-methyl-1,8-dioxa-2,4-diazaspiro[4.5]dec-3-en-3-yl)-N-(pyridin-3-yl)-1H-imidazole-5-carboxamide], the mortality (usually the share of the test organisms that died) at 25 µg/mL was in the range of 90 to 100%.

The subject of the next assay is Myzus persicae (Sulzer). As to the kind of experiment: Insecticidal Activity Test 1 against Myzus persicae (Sulzer), foliar spray on potted peppers, approximately 5 ppm. The assay is classed as in vivo. Particulars: in Capsicum, 120 h, approximately 5 ppm drug solution in water, counted on day 5 after spraying, read-out: mortality rate rating.
Text: Insecticidal Activity Test 1 Against Myzus persicae (Sulzer)
Peppers were planted in plastic pots with a diameter of 8 cm and a height of 8 cm, Myzus persicae (Sulzer) was reproduced therein, and then the number of Myzus persicae (Sulzer) in each pot was investigated. Some of the compounds prepared in the examples were selected, the compound was dispersed in water to be diluted to approximately 5 ppm, thereby preparing a drug solution.
The drug solution was sprayed onto the foliage of the peppers planted in the pots using a hand sprayer and air-dried, and the pots were stored in a green house.
as §1, §2
Turning to `CCN(C(=O)c1cnc(-c2noc(N3CCCC3)n2)n1C)c1cccnc1` [Ia-1-1-27, N-ethyl-1-methyl-N-(pyridin-3-yl)-2-(5-(pyrrolidin-1-yl)-1,2,4-oxadiazol-3-yl)-1H-imidazole-5-carboxamide], the mortality at 5 µg/mL was 90 to 100%.

Take `CCN(C(=O)c1cnc(-c2noc(N(C)C)n2)n1C)c1cccnc1` [Ia-1-1-36, 2-(5-(dimethylamino)-1,2,4-oxadiazol-3-yl)-N-ethyl-1-methyl-N-(pyridin-3-yl)-1H-imidazole-5-carboxamide]: the mortality at 5 µg/mL lay in the range of 90 to 100%.

With `CCSc1ccccc1-c1nc(-c2ncc(C(=O)N(CC)c3cccnc3)n2C)no1` [Ia-1-1-43, N-ethyl-2-(5-(2-(ethylthio)phenyl)-1,2,4-oxadiazol-3-yl)-1-methyl-N-(pyridin-3-yl)-1H-imidazole-5-carboxamide], the mortality at 5 µg/mL lay within 90 to 100%.

As to `CCN(C(=O)c1cnc(-c2nnc(C3CC3)o2)n1C)c1cccnc1` [Ia-1-3-2, 2-(5-cyclopropyl-1,3,4-oxadiazol-2-yl)-N-ethyl-1-methyl-N-(pyridin-3-yl)-1H-imidazole-5-carboxamide], the mortality at 5 µg/mL lay within 90 to 100%.

`CCN(C(=O)c1cnc(-c2nnc(C)o2)n1C)c1cccnc1` [Ia-1-3-3, N-ethyl-1-methyl-2-(5-methyl-1,3,4-oxadiazol-2-yl)-N-(pyridin-3-yl)-1H-imidazole-5-carboxamide]: the mortality at 5 µg/mL lay within 90 to 100%.

`CCN(C(=O)c1cnc(C2=NOC(C)(C)N2C)n1C)c1cccnc1` [Ia-1-4-2, N-ethyl-1-methyl-N-(pyridin-3-yl)-2-(4,5,5-trimethyl-4,5-dihydro-1,2,4-oxadiazol-3-yl)-1H-imidazole-5-carboxamide]: the mortality at 5 µg/mL was in the range of 90 to 100%.

In the case of `CCN(C(=O)c1cnc(C2=NOC3(CCSCC3)N2C)n1C)c1cccnc1` [Ia-1-4-22, N-ethyl-1-methyl-2-(4-methyl-1-oxa-8-thia-2,4-diazaspiro[4.5]dec-2-en-3-yl)-N-(pyridin-3-yl)-1H-imidazole-5-carboxamide], the mortality at 5 µg/mL lay within 90 to 100%.

For `CCN(C(=O)c1cnc(C2=NOC(C3CC3)N2)n1C)c1cccnc1` (stereo not shown) [Ia-1-4-41, 2-(5-cyclopropyl-4,5-dihydro-1,2,4-oxadiazol-3-yl)-N-ethyl-1-methyl-N-(pyridin-3-yl)-1H-imidazole-5-carboxamide], the mortality at 5 µg/mL lay in the range of 90 to 100%.

For `CCN(C(=O)c1cnc(C2=NOC(C)N2)n1C)c1cccnc1` (stereo not shown) [Ia-1-4-43, N-ethyl-1-methyl-2-(5-methyl-4,5-dihydro-1,2,4-oxadiazol-3-yl)-N-(pyridin-3-yl)-1H-imidazole-5-carboxamide], the mortality at 5 µg/mL was 90 to 100%.

In the case of `CCC1NC(c2ncc(C(=O)N(CC)c3cccnc3)n2C)=NO1` (stereo not shown) [Ia-1-4-44, N-ethyl-2-(5-ethyl-4,5-dihydro-1,2,4-oxadiazol-3-yl)-1-methyl-N-(pyridin-3-yl)-1H-imidazole-5-carboxamide], the mortality at 5 µg/mL was in the range of 90 to 100%.

For the compound `CCN(C(=O)c1cnc(C2=NC3(CCOCC3)ON2C)n1C)c1cccnc1` [Ia-1-5-2, N-ethyl-1-methyl-2-(2-methyl-1,8-dioxa-2,4-diazaspiro[4.5]dec-3-en-3-yl)-N-(pyridin-3-yl)-1H-imidazole-5-carboxamide], the mortality at 5 µg/mL fell in the range of 90 to 100%.

For `CCN(C(=O)c1cnc(C2=NC3(CCC(C(F)(F)F)CC3)ON2C)n1C)c1cccnc1` (stereo not shown) [Ia-1-5-6, N-ethyl-1-methyl-2-(2-methyl-8-(trifluoromethyl)-1-oxa-2,4-diazaspiro[4.5]dec-3-en-3-yl)-N-(pyridin-3-yl)-1H-imidazole-5-carboxamide], the mortality at 5 µg/mL was 90 to 100%.
